The source of these data is patent US8487093B2, “β-lactamase inhibitors” (Merck Sharp & Dohme Corp., priority 2008, dated 2013).

SMILES strings stand for the structures. pIC50: −log10 of the molar value. Where two headings read alike, the source gives them in different places.

The target of one assay is KPC-2 (K. pneumoniae) (Klebsiella pneumoniae, UniProt Q9F663). As to the kind of experiment: biochemical.
For the next assay, the target named is AmpC (P. aeruginosa) (Pseudomonas aeruginosa (strain ATCC 15692 / DSM 22644 / CIP 104116 / JCM 14847 / LMG 12228 / 1C / PRS 101 / PAO1), UniProt P24735). As to the kind of experiment: biochemical. On the procedure:
The Class C enzyme activities were measured in the presence of the test inhibitor in spectrophotometric assay against the commercially available substrate, nitrocefin. The enzyme AmpC (P. aeruginosa.), and the substrate, were dissolved in 100 mM KH2PO4 buffer (pH 7). The buffer also contains 0.005% BSA. The test inhibitor was dissolved in DMSO and diluted 1:20 in the assay, resulting in a final concentration range of 50 μM to 0.0002 μM. In a 96-well microplate, the test inhibitor was incubated with the beta-lactamase enzyme for 40 minutes at ambient temperature, the substrate solution was added, and the incubation continued for another 40 minutes. […] The IC50 value was determined from semi logarithmic plots of enzyme inhibition versus inhibitor concentration, with a curve generated using a 4-parameter fit.

[1] abbreviates: Table 3, read-out: K.p. KPC-2 IC50.
The mark [2] stands for this setting: Table 3, read-out: P.a. AmpC IC50.

Chain of AmpC (P. aeruginosa) (P24735 27-397): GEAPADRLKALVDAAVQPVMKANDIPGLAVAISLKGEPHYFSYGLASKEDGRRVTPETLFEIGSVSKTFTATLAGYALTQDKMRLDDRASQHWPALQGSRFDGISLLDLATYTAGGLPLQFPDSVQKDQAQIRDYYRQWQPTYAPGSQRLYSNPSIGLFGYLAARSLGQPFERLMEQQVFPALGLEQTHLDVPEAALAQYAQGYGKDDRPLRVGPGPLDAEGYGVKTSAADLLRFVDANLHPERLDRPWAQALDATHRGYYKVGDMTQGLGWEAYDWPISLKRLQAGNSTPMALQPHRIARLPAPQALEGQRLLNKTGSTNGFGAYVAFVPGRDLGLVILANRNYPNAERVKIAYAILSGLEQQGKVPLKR
Chain of KPC-2 (K. pneumoniae) (Q9F663 25-293 limits assumed): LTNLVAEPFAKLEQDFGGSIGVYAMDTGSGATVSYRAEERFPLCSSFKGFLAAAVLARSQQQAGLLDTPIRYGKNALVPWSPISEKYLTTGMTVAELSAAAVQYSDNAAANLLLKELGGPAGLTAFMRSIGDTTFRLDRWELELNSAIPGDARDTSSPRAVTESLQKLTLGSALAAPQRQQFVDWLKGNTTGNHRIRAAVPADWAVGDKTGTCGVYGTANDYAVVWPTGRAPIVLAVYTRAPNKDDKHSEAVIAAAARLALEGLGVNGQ

For `O=C(NC1CCCNC1)[C@@H]1CC[C@@H]2CN1C(=O)N2OS(=O)(=O)O` (single isomer, unassigned) [Example 19b], the results for the pIC50 at KPC-2 (K. pneumoniae) (setting [1]) and on AmpC (P. aeruginosa) (setting [2]) were 6.62 and 6.32, respectively.
Turning to `O=C(NC1CCNC1)[C@@H]1CC[C@@H]2CN1C(=O)N2OS(=O)(=O)O` (stereo in doubt) [Example 14, (2S,5R)-7-oxo-N-[(3R)-pyrrolidin-3-yl]-6-(sulfooxy)-1,6-diazabicyclo[3.2.1]octane-2-carboxamide], the pIC50 on KPC-2 (K. pneumoniae) (K.p. KPC-2 IC50, Table 3) was 6.45; on AmpC (P. aeruginosa) (setting [2]), 6.96.
`O=C(N[C@H]1CCNC[C@H]1F)[C@@H]1CC[C@@H]2CN1C(=O)N2OS(=O)(=O)O` [Example 15, (2S,5R)—N-[(3R,4S)-3-Fluoropiperidin-4-yl]-7-oxo-6-(sulfooxy)-1,6-diazabicyclo[3.2.1]octane-2-carboxamide]: the figures for the negative-log IC50 (pIC50) at KPC-2 (K. pneumoniae) (setting [1]) and against AmpC (P. aeruginosa) were 6.89 and 7.31, respectively.
In the same order, the values of `O=C(Nc1ccc2c(c1)CCNC2)[C@@H]1CC[C@@H]2CN1C(=O)N2OS(=O)(=O)O` [Example 16, (2S,5R)-7-Oxo-6-(sulfooxy)-N-(1,2,3,4-tetrahydroisoquinolin-6-yl)-1,6-diazabicyclo[3.2.1]octane-2-carboxamide] are 7.72 and 7.85.
On to `O=C(Nc1ccc(C2CCNCC2)cn1)[C@@H]1CC[C@@H]2CN1C(=O)N2OS(=O)(=O)O` [Example 17, (2S,5R)-7-Oxo-N-(5-piperidin-4-ylpyridin-2-yl)-6-(sulfooxy)-1,6-diazabicyclo[3.2.1]octane-2-carboxamide], for which the pIC50 on AmpC (P. aeruginosa) (setting [2]) is 8.22.
Regarding `O=C(OCC1CCNCC1)[C@@H]1CC[C@@H]2CN1C(=O)N2OS(=O)(=O)O` [Example 18, Piperidin-4-ylmethyl(2S,5R)-7-oxo-6-(sulfooxy)-1,6-diazabicyclo[3.2.1]octane-2-carboxylate], the pIC50 at KPC-2 (K. pneumoniae) (setting [1]) is 8.00; at AmpC (P. aeruginosa) (setting [2]) it was 6.74.
The like results for `O=C(NC1CCCNC1)[C@@H]1CC[C@@H]2CN1C(=O)N2OS(=O)(=O)O` (some centres unmarked) [Example 19a] were, in that order, 6.32 and 7.19.
In the same order, the values of `O=C(NC1CNC1)[C@@H]1CC[C@@H]2CN1C(=O)N2OS(=O)(=O)O` [Example 20] are 7.77 and 6.00.
Take `O=C(N[C@@H]1CCNC1)[C@@H]1CC[C@@H]2CN1C(=O)N2OS(=O)(=O)O` [Example 21]: the pIC50 against KPC-2 (K. pneumoniae) (K.p. KPC-2 IC50, Table 3) was 5.37; at AmpC (P. aeruginosa) (setting [2]), 4.54.
In the case of `O=C(N[C@@H]1CCCNCC1)[C@@H]1CC[C@@H]2CN1C(=O)N2OS(=O)(=O)O` [Example 22], the pIC50 at KPC-2 (K. pneumoniae) (setting [1]) was 6.65; against AmpC (P. aeruginosa) it was 6.28.
Regarding `CN1CCC(NC(=O)[C@@H]2CC[C@@H]3CN2C(=O)N3OS(=O)(=O)O)CC1` [Example 23], the pIC50 on KPC-2 (K. pneumoniae) (setting [1]) was 6.62; on AmpC (P. aeruginosa) (setting [2]), 6.30.
For `O=C(N[C@H]1CCNC[C@@H]1F)[C@@H]1CC[C@@H]2CN1C(=O)N2OS(=O)(=O)O` [Example 24], the pIC50 is 7.05 at KPC-2 (K. pneumoniae) (setting [1]) and 6.96 on AmpC (P. aeruginosa).
Take `O=C(N[C@@H]1CCNC[C@@H]1F)[C@@H]1CC[C@@H]2CN1C(=O)N2OS(=O)(=O)O` [Example 25]: the pIC50 was 6.57 on KPC-2 (K. pneumoniae) (setting [1]) and 7.70 against AmpC (P. aeruginosa).
Turning to `CO[C@H]1CNCC[C@H]1NC(=O)[C@@H]1CC[C@@H]2CN1C(=O)N2OS(=O)(=O)O` [Example 26], the pIC50 at KPC-2 (K. pneumoniae) (K.p. KPC-2 IC50, Table 3) was 6.54; at AmpC (P. aeruginosa) it was 6.92.
Turning to `O=C(NC1CCS(=O)(=O)CC1)[C@@H]1CC[C@@H]2CN1C(=O)N2OS(=O)(=O)O` [Example 27], the pIC50 at KPC-2 (K. pneumoniae) (setting [1]) was 6.82; at AmpC (P. aeruginosa) (setting [2]) it was 8.02.
For `N[C@@H]1CNC[C@H]1NC(=O)[C@@H]1CC[C@@H]2CN1C(=O)N2OS(=O)(=O)O` [Example 28], the pIC50 at KPC-2 (K. pneumoniae) (setting [1]) was 6.18; on AmpC (P. aeruginosa) (setting [2]), 6.13.
In the same order, the values of `O=C(N[C@@H]1CNC[C@H]1O)[C@@H]1CC[C@@H]2CN1C(=O)N2OS(=O)(=O)O` [Example 29] are 6.60 and 5.60.
As to `O=C(N[C@@H]1CNC[C@@H]1O)[C@@H]1CC[C@@H]2CN1C(=O)N2OS(=O)(=O)O` [Example 30], the pIC50 at KPC-2 (K. pneumoniae) (setting [1]) is 6.28; at AmpC (P. aeruginosa) (setting [2]), 5.65.
In the case of `O=C(N[C@@H]1CNC[C@@H]1F)[C@@H]1CC[C@@H]2CN1C(=O)N2OS(=O)(=O)O` [Example 31], the pIC50 on KPC-2 (K. pneumoniae) (K.p. KPC-2 IC50, Table 3) was 6.72; at AmpC (P. aeruginosa) it was 6.82.
The like results for `O=C(N[C@H]1CNC[C@H]1F)[C@@H]1CC[C@@H]2CN1C(=O)N2OS(=O)(=O)O` [Example 32] were, in that order, 6.15 and 7.72.
In the case of `O=C(N[C@H]1CCN(C2CCNCC2)C1=O)[C@@H]1CC[C@@H]2CN1C(=O)N2OS(=O)(=O)O` [Example 33], the pIC50 is 7.68 on KPC-2 (K. pneumoniae) (setting [1]) and 6.21 at AmpC (P. aeruginosa).
Take `O=C(N[C@@H]1CCN(C2CCNCC2)C1=O)[C@@H]1CC[C@@H]2CN1C(=O)N2OS(=O)(=O)O` [Example 34]: the pIC50 at KPC-2 (K. pneumoniae) (setting [1]) was 6.55; on AmpC (P. aeruginosa), 7.35.
As to `O=C(N[C@@H]1CCCNC[C@@H]1F)[C@@H]1CC[C@@H]2CN1C(=O)N2OS(=O)(=O)O` [Example 35], the pIC50 is 6.82 at KPC-2 (K. pneumoniae) (setting [1]) and 7.89 at AmpC (P. aeruginosa) (setting [2]).
The like results for `O=C(N[C@H]1CCCNC[C@H]1F)[C@@H]1CC[C@@H]2CN1C(=O)N2OS(=O)(=O)O` [Example 36] were, in that order, 6.89 and 7.74.
For the compound `O=C(NCC1(F)CNC1)[C@@H]1CC[C@@H]2CN1C(=O)N2OS(=O)(=O)O` [Example 37], the negative logarithm of the IC50 (pIC50) was 6.92 at KPC-2 (K. pneumoniae) (setting [1]) and 7.40 at AmpC (P. aeruginosa) (setting [2]).
In the same order, the values of `O=C(NCC1CCCN1)[C@@H]1CC[C@@H]2CN1C(=O)N2OS(=O)(=O)O` (some centres unmarked) [Example 38] are 6.92 and 6.60.
In the same order, the values of `O=C(NCC1CCCCN1)[C@@H]1CC[C@@H]2CN1C(=O)N2OS(=O)(=O)O` (some centres unmarked) [Example 39] are 6.72 and 6.28.
Take `O=C(NCC1CCNCC1)[C@@H]1CC[C@@H]2CN1C(=O)N2OS(=O)(=O)O` [Example 40]: the pIC50 against KPC-2 (K. pneumoniae) (K.p. KPC-2 IC50, Table 3) was 7.11; at AmpC (P. aeruginosa) (setting [2]) it was 7.52.
On to `O=C(NC(CO)C1CCNCC1)[C@@H]1CC[C@@H]2CN1C(=O)N2OS(=O)(=O)O` (some centres unmarked) [Example 41], for which the figures for the pIC50 on KPC-2 (K. pneumoniae) (setting [1]) and on AmpC (P. aeruginosa) were 6.49 and 6.15, respectively.
Consider `O=C(NC[C@@H]1CNCCCO1)[C@@H]1CC[C@@H]2CN1C(=O)N2OS(=O)(=O)O` [Example 42], for which the pIC50 is 6.96 against KPC-2 (K. pneumoniae) (K.p. KPC-2 IC50, Table 3) and 7.00 against AmpC (P. aeruginosa).
In the same order, the values of `O=C(NC[C@H]1CNCCCO1)[C@@H]1CC[C@@H]2CN1C(=O)N2OS(=O)(=O)O` [Example 43] are 7.00 and 7.82.
With `O=C(NCCC1CCNCC1)[C@@H]1CC[C@@H]2CN1C(=O)N2OS(=O)(=O)O` [Example 44], the figures for the pIC50 on KPC-2 (K. pneumoniae) (setting [1]) and on AmpC (P. aeruginosa) (setting [2]) were 7.35 and 7.96, respectively.
The like results for `O=C(NCCN1CCCCC1)[C@@H]1CC[C@@H]2CN1C(=O)N2OS(=O)(=O)O` [Example 45] were, in that order, 6.82 and 6.74.
In the same order, the values of `O=C(NCCN1CCNCC1)[C@@H]1CC[C@@H]2CN1C(=O)N2OS(=O)(=O)O` [Example 46] are 7.02 and 7.38.
The like results for `O=C(NC1C2CNCC21)[C@@H]1CC[C@@H]2CN1C(=O)N2OS(=O)(=O)O` (some centres unmarked) [Example 47] were, in that order, 5.00 and 6.14.
On to `CN(C(=O)[C@@H]1CC[C@@H]2CN1C(=O)N2OS(=O)(=O)O)C1CCNCC1` [Example 48], for which the pIC50 on KPC-2 (K. pneumoniae) (setting [1]) was 5.60; at AmpC (P. aeruginosa) (setting [2]), 6.54.
